How the values were obtained:
[1] = test system: RAW 264.7 cell; experiment: RT-PCR of pro-inflammatory cytokine and iNOS mRNA in macrophages stimulated by LPS; format: cell-based, mouse; conditions: RAW 264.7, compound 2 h before 1 µg/ml LPS, 6 h; FIG. 8
Procedure: A macrophage is a front-line immune cell that is responsible for an initial immune response to various antigens and causes a strong inflammation reaction. RAW 264.7 cell, a mouse macrophage strain, was purchased from American Type Culture Collection (ATCC, U.S.A.), and incubated under 5% CO2 and at a temperature of 37°C in a Dulbecco's modified Eagle's medium (DMEM) supplemented with 10% FBS serum, 100 units/ml of penicillin, and 100 µg/ml of streptomycin. […] of compound I or II was added to the incubated cells and then, two hours later, the cells were treated with 1 µg/ml lipopolysaccharide (LPS), which is a cell wall component of a gram negative bacteria and incubated further for 6 hours. Then, the cells were collected and the total RNA thereof was isolated using TRIzol and quantified. Out of the total RNA, 1 µg of RNA was used to synthesize cDNA using a reverse transcriptase. Then, a polymerase chain reaction (PCR) was performed using the cDNA as a template to identify expression levels of cytokines. In detail, PCR was performed in the presence of a DNA polymerase using the cDNA as a template to amplify IL-1β, IL-6, and TNF-α which are pro-inflammatory cytokines, iNOS, nitric oxide synthase, and β-actin used as a control group with a cycle consisting of 30 seconds at a temperature of 94°C, 45 seconds at a temperature of 55°C, and 45 seconds at a temperature of 72°C repeated 30 times. Primers set forth in SEQ ID. NOs: 1 through 10 shown in Table 1 were used to amplify IL-1β, IL-6, TNF-α, iNOS and β-actin, respectively. Table 1 [Table 1]
The amplification product of PCR was subjected to electrophoresis on 1% agarose gel in which ethidium bromide (dye) was present so as to measure mRNA expression levels of the cytokines. FIGS. 8a and 8b show changes in the amounts of the pro-inflammatory cytokines caused by compounds I and II, respectively.

[2] = test system: IMR-90 cells; experiment: Collagen Sircol assay in TGF-β-treated lung fibrocytes; format: cell-based, human; conditions: IMR-90, TGF-β (5 ng/ml), 0, 1, 5 and 10 µM; FIG. 7b
Procedure: (§1) IMR-90 cells, human normal lung fibrocytes, were purchased from American Type Culture Collection (ATCC, U.S.A.), and were incubated under 5% CO2 and at a temperature of 37°C for 24 hours in a modified Eagle's medium (MEM) supplemented with 10% FBS serum, 100 units/ml of penicillin, and 100 µg/ml of streptomycin, 1 mM sodium pyruvate, and 0.1 mM non-essential amino acids. Then, two hours before treatment with TGF-β (5ng/ml), compound I was added to the cell culture at a varying concentration (0, 1, 5 and 10 µM) and then, the IMR-90 cells were incubated for 24 hours. Then, as described in Example 2, western blotting was performed to identify inhibition of differentiation of lung fibrocytes by compound I based on expression levels of α-SMA and fibronectin, which are fibrosis marker molecules. […] Also, in extracellular matrix, the amount of collagen, which is one of important materials regarding fibrosis, was measured according to the specification of the manufacturer by using a collagen Sircol assay kit (Biocolor, England).

[3] = test system: IMR-90 cells; experiment: Western blotting of fibrosis markers in TGF-β-treated lung fibrocytes; format: cell-based, human; conditions: IMR-90, 0, 1, 5 and 10 µM added 2 h before TGF-β (5 ng/ml), 24 h; FIG. 7a
Procedure: as §1

[4] = test system: U87-MG; experiment: Apoptosis of brain cancer cells alone or with doxorubicin, CCK-8 viability assay; format: cell-based; conditions: 48 h; for apoptosis effect together with doxorubicin: compound added 2 h before doxorubicin 0.05 µM; for apoptosis: compound alone at 5 µM or more, FIGS. 9b, 9d
Procedure: TGF-βis known to have contrasting effects related to a tumor. That is, at an initial stage, TGF-β suppresses tumor growth, but at a latter stage, promotes metastasis or infiltration of a tumor. Thus, apoptosis of tumor cell lines caused by compound I and II, and apoptosis of tumor cell lines caused by compound I or II in combination with doxorubicin, an anti-cancer agent, were measured. […] The tumor cells were treated with compound I or II at the concentrations shown in FIG. 9, and 2 hours later, doxorubicin was added thereto. Then, the cells were incubated for 48 hours under the conditions described above and then, quantified using a CCK-8 viability assay kit (Dojindo, Japan).

[5] = test system: IMR-90 cells; experiment: Collagen amount in irradiated lung fibrocytes; format: cell-based, human; conditions: IMR-90, 10 µM, 2 h before 4 Gy radiation, 48 h; FIG. 7d
Procedure: In order to identify whether compound I inhibits radiation-induced fibrosis, instead of external stimulation by TGF-β radiation that can internally engogenously increase TGF-β was employed to induce fibrosis. IMR-90 cells were incubated as described in (1) above and the IMR-90 cells were inoculated to a 6 cm plate containing a modified Eagle's medium (MEM) supplemented with 10% FBS serum, 100 units/ml of penicillin, and 100 µg/ml of streptomycin, 1 mM sodium pyruvate, and 0.1 mM non-essential amino acids. Then, compound I at a concentration of 10 µM was added thereto and the IMR-90 cells were incubated for 2 hours, and then, 4 Gy radiation was applied thereto. 48 hours later, the IMR-90 cells were collected. Then, fibrosis makers as described in Example 2 were identified from the IMR-90 cells by western blotting.

[6] = test system: HSC-T6 cells; experiment: Western blotting of fibrosis markers in TGF-β-treated hepatic stellate cells; format: cell-based, human; conditions: HSC-T6, 0, 1, 5 and 10 µM added 2 h before TGF-β (5 ng/ml), 24 h; FIGS. 6a, 6b
Procedure: In addition, levels of α-smooth muscle actin (α-SMA) and extracellular matrix material fibronectin, which are typically used as a fibrosis molecular marker to identify fibrosis of hepatic stellate cells, were measured by western blotting. Two hours before the treatment with TGF-β(5 ng/ml), each of compounds I and II was added at a varying concentration (0, 1, 5 and 10 µM) to the HSC-T6 cells incubated under the conditions described above, and then, the HSC-T6 cells were incubated under 5% CO2, and at a temperature of 37°C. After 24-hour incubation, the HSC-T6 cells were dissolved in a RIPA buffer solution (50 mM Tris-Cl (pH7.4), 1% NP-40, 150 mM NaCl, 1 mM EDTA) including a protease inhibitor (1 mM PMSF, […] aprotinin, […] leupeptin, and 1 mM Na3VO4) to prepare cytoplasm fractions, and 4-12% gradient SDS-PAGE (Invitrogen) was performed on the cytoplasmic fractions to separate proteins. The proteins separated on the SDS-PAGE gel were transferred to a nitrocellulose membrane (BioRad, Hercules, CA, USA) and the membrane was blocked with 5% skim milk. Then, the membrane was treated with an anti-α-SMA antibody (Sigma, U.S.A.), an anti-fibronectin antibody (Santa Cruz, U.S.A.), and an anti-GAPDH antibody (Ab Frontier, Korea). […]

Cc1cn2c(nc3c2c(=O)n(Cc2ccccc2Cl)c(=O)n3C)[nH]1 [compound I, 3-(2-chlorobenzyl)-1,7-dimethyl-1H-imidazo[2,1-f]purine-2,4(3H,8H)-dion]
IL-1 mRNA expression [1]: significantly inhibited | expression of TNF-α [1]: slightly reduced | iNOS mRNA expression [1]: significantly inhibited | amount of collagen [2]: concentration-dependently reduced the amount of collagen | fibrosis in human lung fibrocytes (expression levels of α-SMA and fibronectin) [3]: concentration-dependently decreased fibrosis | apoptosis effect together with doxorubicin [4]: additive or synergistic apoptosis effects | apoptosis [4]: did not occur | amount of collagen [5]: reduced to a level similar to that in the no-treatment control group | expression of α-SMA and fibronectin (fibrosis markers) [6]: concentration-dependently reduced

Cc1[nH]c2nc3c(c(=O)n(Cc4c(F)cccc4Cl)c(=O)n3C)n2c1C [compound II, 3-(2-chloro-6-fluorobenzyl)-1,6,7-trimethyl-1H-imidazo[2,1-f]purine-2,4(3H,8H)-dion]
IL-6 mRNA expression [1]: distinctively reduced | expression of TNF-α [1]: slightly reduced | iNOS mRNA expression [1]: distinctively reduced | apoptosis effect together with doxorubicin [4]: additive or synergistic apoptosis effects | apoptosis [4]: did not occur | expression of α-SMA and fibronectin (fibrosis markers) [6]: significantly reduced fibrosis markers

Source: patent EP2488183B1, “Composition for inhibiting TGF-beta comprising imidazopurine derivatives” (Korea Institute of Radiological & Medical Sciences, priority 2009, dated 2011)
